Experimental data taken from US5219884A, “Immunosuppressant” (Taito Co., Ltd., priority 1990, dated 1993).
In brackets after ≈: the same amount, converted by molar mass. Where two headings read alike, the source gives them in different places. Each block holds one compound with its values, some of them ahead of it.

Experiments:
[1] = system: human allogenic MLR (peripheral blood lymphocytes); test: human allogenic MLR-suppressive activity; assay type: cell-based
Method: The human allogenic MLR-suppressive activity was assayed as follows:
Human peripheral blood lymphocytes obtained by Ficoll-Paque density gradient centrifugation of normal human peripheral blood were suspended in the RPMI1640 medium supplemented with 10% FCS, placed in plastic dishes, and incubated at 37° C. in an atmosphere of 5% carbon dioxide for 2 hours. After termination of incubation, the supernatant after gentle pipetting was harvested and centrifuged (1000 rpm, for 5 minutes) to obtain plastic-nonadherent cells. The plastic-nonadherent cells were allowed to pass through a nylon-wool column to give nylon-nonadherent cells, and the concentration of the cell suspension was adjusted to 4×10^6 cells/ml by using the RPMI1640 culture medium supplemented with 10% FCS, and used as the responder cell suspension.
The plastic-adherent cells were removed from the plastic dish by vigorous pipetting after addition of phosphate buffered saline supplemented with 5% FCS and 0.02% disodium ethylenediamine-tetraacetic acid (EDTA). The plastic-adherent cells were treated with 40 μg/ml of mitomycin C at 37° C. for 60 minutes, washed three times, and suspended to the concentration of 4×10^6 cells/ml in the RPMI1640 culture medium supplemented with 10% FCS. The resultant suspension was used as the stimulator cell suspension. Fifty μl of the responder cell suspension from the donor A or C was mixed with 50 μl of the stimulator cell suspension from the donor B or D, to which 100 μl of the test substance was added, and cultured at 37° C. in the an atmosphere 5% carbon dioxide for 5 days.
After termination of the culture, 1.0 μCi/well of ^3 H-thymidine was added, and after 18 hours of culture, the cells were harvested by a cell-harvester. The radioactivity incorporated into the cells was measured by a liquid scintillation counter as the index of blastogenic response of lymphocytes in human allogenic MLR. The suppression of human allogenic MLR was evaluated by calculating the percent suppression by the following formula. [formula]

[2] = body weight, wet weight of thymus and spleen, number of spleen cells in SRBC-immunized mice; assay type: in vivo, mouse; details: 10 mg/kg/day
Method: (§1) Males 5- to 7-week-old BALB/c mice were immunized with sheep red blood cells (SRBC), and the spleen was resected three or four days later. By counting the plaque forming cells (PFC), suppressive effect on the production of the anti-sheep red blood cell antibody was examined as follows.
(§2) BALB/c mice were immunized with SRBC (1×10^7 cells/mouse, intravenous administration), and ISP-I in the Example 1 was administered intraperitoneally for 4 consecutive days from the day of immunization. Four days after immunization (the next day of the final administration), the spleen was resected and the anti-sheep red blood cell antibody-producing cells were determined by the direct plaque method. At the same time the body weight of the mouse, wet weight of the thymus and the spleen, and numbers of spleen cells were also determined.
as §2, with “(5×10^7” for “(1×10^7”, “the compound” for “ISP-I”, “5” for “1”, “resected,” for “resected”, “time,” for “time”

[3] = system: IL2-dependent mouse cell line CTLL-2; test: suppression of IL-2 induced 3H-thymidine incorporation of CTLL-2; assay type: cell-based; details: 72 hrs, second run (control 30168 cpm); for inhibition at 0.1 µg/mL / inhibition at 1 µg/mL: Mus musculus, CTLL-2; for inhibition at 0.1 µg/mL: read-out: Suppression
Method: IL2-dependent mouse cell line CTLL-2 cells were suspended in the RPMI1640 culture medium supplemented with 30% FCS to a concentration of 2×10^5 cells/ml. The suspension (50 μl) and 50 μl of concanavalin A-stimulated rat spleen cell culture supernatants containing IL2 were added to each well of 96-well microculture plates in which 100 μl of the test substance had been placed. After culturing at 37° C. in an atmosphere of 5% carbon dioxide for 20, 44, or 68 hours, 0.5 μCi/well of ^3 H-thymidine was added, and cultured for 4 hours under the same conditions. After termination of the culture, the cells were harvested by a cell harvester, and the radioactivity incorporated into the cells was measured by a liquid scintillation counter.

[4] = system: anti-sheep red blood cell antibody production in BALB/c mice; test: suppression of mouse anti-sheep red blood cell antibody production (PFC); assay type: in vivo
Method: as §1, §2
as §2, with “(5×10^7” for “(1×10^7”, “the compound” for “ISP-I”, “5” for “1”, “resected,” for “resected”, “time,” for “time”

[5] = Experiment 2, 10 mg/kg/day i.p., 4 days

- IC50 ([1]; Lymphocyte, human allogenic MLR, read-out: 50%-inhibition concentration (IC50)): 0.35 ng/mL (≈ 0.867 nM)
SMILES: CCCCCCC(=O)CCCCCCCCCC(O)C(O)C(N)(CO)C(=O)O (stereo not drawn) [Example 5]
- inhibition at 0.0001 µg/mL ([1]; Homo sapiens, Lymphocyte, donor A/donor B, 0.0001 μg/ml, read-out: Suppression): 14.4%
- inhibition at 0.001 µg/mL ([1]; Homo sapiens, Lymphocyte, donor A/donor B, 0.001 μg/ml, read-out: Suppression): 42.8%
- inhibition at 0.01 µg/mL ([1]; Homo sapiens, Lymphocyte, donor A/donor B, 0.01 μg/ml, read-out: Suppression): 59.4%
- inhibition at 0.1 µg/mL ([1]; Homo sapiens, Lymphocyte, donor A/donor B, 0.1 μg/ml, read-out: Suppression): 87.1%
- inhibition at 1 µg/mL ([1]; Homo sapiens, Lymphocyte, donor A/donor B, 1 μg/ml, read-out: Suppression): 85.4%
- inhibition at 10 µg/mL ([1]; Homo sapiens, Lymphocyte, donor A/donor B, 10 μg/ml, read-out: Suppression): 99.8%
- inhibition at 10 pg/mL ([1]; Homo sapiens, Lymphocyte, donor C/donor D, 0.00001 μg/ml, read-out: Suppression): 32.3%
- inhibition at 0.0001 µg/mL ([1]; Homo sapiens, Lymphocyte, donor C/donor D, 0.0001 μg/ml, read-out: Suppression): 54.7%
- inhibition at 0.001 µg/mL ([1]; Homo sapiens, Lymphocyte, donor C/donor D, 0.001 μg/ml, read-out: Suppression): 48.3%
- inhibition at 0.01 µg/mL ([1]; Homo sapiens, Lymphocyte, donor C/donor D, 0.01 μg/ml, read-out: Suppression): 58.1%
- inhibition at 0.1 µg/mL ([1]; Homo sapiens, Lymphocyte, donor C/donor D, 0.1 μg/ml, read-out: Suppression): 84.7%
- inhibition at 1 µg/mL ([1]; Homo sapiens, Lymphocyte, donor C/donor D, 1 μg/ml, read-out: Suppression): 80.5%
- 3H-thymidine uptake ([1]; donor A/donor B, 0.0001 μg/ml): 20789 cpm
- 3H-thymidine uptake ([1]; donor A/donor B, 0.001 μg/ml): 14690 cpm
- 3H-thymidine uptake ([1]; donor A/donor B, 0.01 μg/ml): 11130 cpm
- 3H-thymidine uptake ([1]; donor A/donor B, 0.1 μg/ml): 5181 cpm
- 3H-thymidine uptake ([1]; donor A/donor B, 1 μg/ml): 5548 cpm
- 3H-thymidine uptake ([1]; donor A/donor B, 10 μg/ml): 2439 cpm
- 3H-thymidine uptake ([1]; donor C/donor D, 0.00001 μg/ml): 11827 cpm
- 3H-thymidine uptake ([1]; donor C/donor D, 0.0001 μg/ml): 7941 cpm
- 3H-thymidine uptake ([1]; donor C/donor D, 0.001 μg/ml): 9057 cpm
- 3H-thymidine uptake ([1]; donor C/donor D, 0.01 μg/ml): 7346 cpm
- 3H-thymidine uptake ([1]; donor C/donor D, 0.1 μg/ml): 2746 cpm
- 3H-thymidine uptake ([1]; donor C/donor D, 1 μg/ml): 3466 cpm
- Body weight ([2]; Experiment 2): 24 ± 1 g
- Number of spleen cells ([2]; Experiment 2): 2.3 ± 0.3 × 10^8 cell
- Wet weight spleen ([2]; Experiment 2): 239 ± 40 mg
- Wet weight thymus ([2]; Experiment 2): 52 ± 5 mg
- 3H-thymidine uptake ([3]; 0.1 μg/ml): 26108 cpm
- 3H-thymidine uptake ([3]; 1 μg/ml): 1532 cpm
- inhibition at 0.1 µg/mL ([3]; 0.1 μg/ml): 13.5%
- inhibition at 1 µg/mL ([3]; 1 μg/ml): 95.1%
- Number of PFC per 1 × 10^7 cell [4, 5]: 5.6 ± 1.7 × 10^3 /1 × 10^7 cell
- Number of PFC per spleen [4, 5]: 12.9 ± 3.9 × 10^4 /spleen

SMILES: CCCCCCC(O)CCCCCC/C=C/CC1OC(=O)C(N)(CO)C1O (stereo not drawn) [Example 8]
- Body weight ([2]; Table 12B): 18 ± 1 g
- Number of spleen cells ([2]; Table 12B): 1.3 ± 0.2 × 10^8 cell
- Wet weight spleen ([2]; Table 12B): 103 ± 30 mg
- Wet weight thymus ([2]; Table 12B): 25 ± 9 mg
- 3H-thymidine uptake ([3]; 0.1 μg/ml): 7262 cpm
- 3H-thymidine uptake ([3]; 1 μg/ml): 1591 cpm
- inhibition at 0.1 µg/mL ([3]; 0.1 μg/ml): 76.1%
- inhibition at 1 µg/mL ([3]; 1 μg/ml): 94.9%
- Number of PFC per 1 × 10^7 cell ([4]; Table 12B, 10 mg/kg/day): 6.7 ± 1.2 × 10^3 /1 × 10^7 cell
- Number of PFC per spleen ([4]; Table 12B, 10 mg/kg/day): 8.5 ± 1.9 × 10^4 /spleen
